Results as given in patent US8420693B2, “Dipyrrole compounds, compositions, and methods for treating cancer or viral diseases” (Gemin X Pharmaceuticals Canada Inc., priority 2004, dated 2013).
Where a name gives a salt, the structure may show the parent alone.

Key:
[1] = system: human prostatic adenocarcinoma cancer PC3 cells; test: Growth of PC3 prostate tumors in SCID mice; assay type: in vivo
Excerpt: (§1) As used herein, the term “T/C value” refers to the value obtained when: (a) the change from baseline in average tumor volume of treated mice is divided by the change from baseline in the average tumor volume of negative control mice; and (b) the numerical value obtained in step (a) is multiplied by 100.
The resultant mice are a model for a human having prostatic cancer.
The human prostatic adenocarcinoma cancer PC3 cells were purchased from the American Type Culture Collection (ATCC). These cells were confirmed to be free of mycoplasma infection. Cells were maintained in the Roswell Park Memorial Institute (RPMI), supplemented with 10% inactivated fetal bovine serum and 1% penicillin-streptomycin-L-Glutamine, under 5% carbon dioxide (CO2) at 37° C. For prostatic-tumor induction, cells were grown lower than 70% confluence in complete medium and then collected with trypsin (Bio Whittaker, Rockland, Me., USA). Cells were then centrifuged and washed 2 times in phosphate buffer solution (PBS) and resuspended in PBS at 1.5×10^6 cells/0.1 mL. PC3 cells were then transplanted subcutaneously into the right flank of SCID mice (Charles River Laboratories, Wilmington, Mass., USA), as a suspension of tumor cells (1.5×10^6 cells in 100 μL PBS), under a laminar airflow hood. Eleven (11) days later, the size of each tumor was measured. […] Relative tumor size and volume was calculated as follows: length (cm)×[width (cm)]^2/2. There were four treatment groups of ten mice each: (a) a negative control group, (b) a positive control group and (c) a group treated with 36.25 μMoles/Kg of Compound 17 Mesylate Salt (d) a group treated with 72.5 μMoles/Kg of Compound 17 Mesylate Salt.
Treatments started on day eleven after PC3 cells transplantation. […] The negative control group was treated with vehicle alone.
Observation continued for 32 days after initial tumor implantation.

[2] = system: C33A human cervical cancer cells; test: Growth of C33A cervical tumors in CB17 SCID/SCID mice; assay type: in vivo; details: for T/C value: day 42
Excerpt: as §1
The resultant mice are a model for a human having cervical cancer.
The C33A human cervical cancer cells were maintained in RPMI (Hyclone, Utah, USA) supplemented with 10% inactivated fetal bovine serum (Bio-Whittaker, MD, USA) and 1% penicillin-streptomycin-L-Glutamine (Gibco, N.Y., USA), under 5% CO2 at 37° C., and passaged twice a week. The cells were grown at a confluency lower than 70% and than collected with Trypsin (Bio-Whittaker, MD, USA). The cells were then centrifuged and washed twice using phosphate buffered saline solution (PBS) and resuspended in PBS at 2×10^6 cells per 100 μl. Viability was examined by staining with trypan blue (Gibco, N.Y., USA) and only flasks with cell viability greater than 95% were used for in vivo studies.
C33A cells were injected subcutaneously into the flank of female CB17 SCID/SCID mice. Each mouse was inoculated with a suspension of 2×10^6 tumors cells per 100 μl on day zero. There were three treatment groups of ten mice each: (a) a negative control group, (b) a group treated with Compound 22 MS and (c) a group treated with Compound 37 MS.
Treatments started on day twenty eight after C33A cells transplantation. […] The negative control group was treated with vehicle alone. The injection volume for Compound treated groups and the negative control group was 100 μl.
Observation continued for 51 days after initial tumor implantation.

[3] = system: C33A cervical carcinoma cells; test: Cancer cell viability by cellular ATP levels (ViaLight), C33A; assay type: cell-based; details: Homo sapiens, C-33-A, 72 h, 3 days of incubation, ATP levels relative to untreated control
Experimental: (§2) Selected cell lines included C33A cervical carcinoma cells and H1299 human non-small cell lung cancer-cells (American Type Culture Collection, Manassas, Va. USA), which were cultured in the media recommended by the American Type Culture Collection. The cells lines were plated in 96-well microtiter plates (PerkinElmer Life Sciences Inc, Boston, Mass., USA) at a confluency that allowed them to reach confluence after 4 days of growth. One day after plating, the cells were treated with various concentrations of Compounds. Stock solutions of the Compounds were prepared in dimethyl sulfoxide (Sigma-Aldrich Inc., St. Louis, Mo., USA), diluted in the recommended media and then added to the cells. The total dimethyl sulfoxide on the cells was 0.1%. After 3 days of incubation the ATP levels in the cells were quantified using a luminescent ViaLight detection system (Bio-Whittaker, MD, USA). The results were plotted relative to untreated control cells, which were set at a value of 100. The IC50s were determined using a best-fit sigmoidal dose response curve with variable slope.

[4] = system: H1299 human non-small cell lung cancer-cells; test: Cancer cell viability by cellular ATP levels (ViaLight), H1299; assay type: cell-based; details: NCI-H1299, 72 h, 3 days of incubation, ATP levels relative to untreated control
Experimental: as §2

[5] = 10 mg/kg iv once a day for five days
[6] = 2.6 mg/kg iv once a day for five days

Structure (SMILES)	IC50 [3]	IC50 [4]	also measured
COC1=CC(c2ccc(OC)c(OC)c2)=NC1=Cc1[nH]c(C)cc1C [Compound 17 Mesylate Salt, 2-((3-methoxy-5-(3,4-dimethoxyphenyl)-2H-pyrrol-2-ylidene)methyl)-3,5-dimethyl-1H-pyrrole]			reduction in tumor growth compared to mice treated with vehicle only ([1]; 36.25 μMoles/Kg iv once a day for five days): did not result in a statistical significant reduction in tumor growth; T/C value ([1]; 36.25 μMoles/Kg iv once a day for five days, day 29): 53%; T/C value ([1]; 36.25 μMoles/Kg iv once a day for five days, day 32): 52%; T/C value ([1]; 72.5 μMoles/Kg iv once a day for five days, day 29): 18%; T/C value ([1]; 72.5 μMoles/Kg iv once a day for five days, day 32): 22%; reduction in tumor growth compared to mice treated with vehicle only ([1]; 72.5 μMoles/Kg iv once a day for five days, days 29 and 32): statistically significant (p<0.01) reduction in tumor growth
COC1=CC(c2ccc(N(C)C)cc2)=NC1=Cc1[nH]c(C)cc1C [Compound 22 MS, 4-(4-methoxy-5-((3,5-dimethyl-1H-pyrrol-2-yl)methylene)-5H-pyrrol-2-yl)-N,N-dimethylbenzenamine]			reduction in tumor growth compared to mice treated with vehicle only [2, 5]: statistically significant (p=0.0024) reduction in tumor growth; T/C value [2, 5]: 34%
COC1=CC(c2ccc(SC(C)C)cc2)=NC1=Cc1[nH]c(C)cc1C [Compound 36, 2-((5-(4-(isopropylthio)phenyl)-3-methoxy-2H-pyrrol-2-ylidene)methyl)-3,5-dimethyl-1H-pyrrole]	1.19 µM	1.43 µM	
COC1=CC(c2cnn(Cc3ccccc3)c2)=NC1=Cc1[nH]c(C)cc1C [Compound 37 MS, 1-benzyl-4-(4-methoxy-5-((3,5-dimethyl-1H-pyrrol-2-yl)methylene)-5H-pyrrol-2-yl)-1H-pyrazole]			reduction in tumor growth compared to mice treated with vehicle only [2, 6]: statistically significant (p<0.0001) reduction in tumor growth; T/C value [2, 6]: 31%
COC1=CC(c2ccc(OC)c(O)c2)=NC1=Cc1[nH]c(C)cc1C [Compound 38, 2-methoxy-5-(4-methoxy-5-((3,5-dimethyl-1H-pyrrol-2-yl)methylene)-5H-pyrrol-2-yl)phenol]	2 µM	6.69 µM	
COC1=CC(c2ccc(F)nc2)=NC1=Cc1[nH]c(C)cc1C [Compound 39, 2-fluoro-5-(4-methoxy-5-((3,5-dimethyl-1H-pyrrol-2-yl)methylene)-5H-pyrrol-2-yl)pyridine]	7.65 µM	20 µM	
COC1=CC(c2cccnc2F)=NC1=Cc1[nH]c(C)cc1C [Compound 40, 2-fluoro-3-(4-methoxy-5-((3,5-dimethyl-1H-pyrrol-2-yl)methylene)-5H-pyrrol-2-yl)pyridine]	8.55 µM	20 µM	
COC1=CC(c2ccc(COC(C)(C)C)cc2)=NC1=Cc1[nH]c(C)cc1C [Compound 41, 2-((5-(4-(tert-butoxymethyl)phenyl)-3-methoxy-2H-pyrrol-2-ylidene)methyl)-3,5-dimethyl-1H-pyrrole]	4.17 µM	10.1 µM	
COC1=CC(c2ccc(OC)nc2)=NC1=Cc1[nH]c(C)cc1C [Compound 42, 2-methoxy-5-(4-methoxy-5-((3,5-dimethyl-1H-pyrrol-2-yl)methylene)-5H-pyrrol-2-yl)pyridine]	7.9 µM	13.9 µM	

More lines, main results first:

IC50 [3]	IC50 [4]	Structure (SMILES)	also measured
8.96 µM	15.9 µM	COC1=CC(c2cncnc2)=NC1=Cc1[nH]c(C)cc1C [Compound 35, 5-(4-methoxy-5-((3,5-dimethyl-1H-pyrrol-2-yl)methylene)-5H-pyrrol-2-yl)pyrimidine]	
0.181 µM	1.65 µM	COC1=CC(c2cnn(Cc3ccccc3)c2)=NC1=Cc1[nH]c(C)cc1C [Compound 37, 1-benzyl-4-(4-methoxy-5-((3,5-dimethyl-1H-pyrrol-2-yl)methylene)-5H-pyrrol-2-yl)-1H-pyrazole]	
0.131 µM	0.709 µM	COc1ccc(C2=NC(=Cc3[nH]c(C)cc3C)C(OCc3ccccc3)=C2)cc1OC [Compound 43, 3-(benzyloxy)-5-(3,4-dimethoxyphenyl)-2-((3,5-dimethyl-1H-pyrrol-2-yl)methylene)-2H-pyrrole]	
2.16 µM	8.3 µM	Cc1cc(C)c(C=C2N=C(c3ccc4c(c3)OCO4)C=C2OCc2ccccc2)[nH]1 [Compound 44, 5-(benzo[d][1,3]dioxol-5-yl)-3-(benzyloxy)-2-((3,5-dimethyl-1H-pyrrol-2-yl)methylene)-2H-pyrrole]	
